A value given as a limit tells only on which side of the number the result lay.

The IC50 is the midpoint of a concentration-inhibition curve.

The target in this experiment is T1, Full-length USP19 (Homo sapiens, UniProt O94966).
T1 construct: Full-length USP19 was purchased from Boston Biochem (E-576); purchased Boston Biochem E-576
T1 sequence (O94966 1-1318): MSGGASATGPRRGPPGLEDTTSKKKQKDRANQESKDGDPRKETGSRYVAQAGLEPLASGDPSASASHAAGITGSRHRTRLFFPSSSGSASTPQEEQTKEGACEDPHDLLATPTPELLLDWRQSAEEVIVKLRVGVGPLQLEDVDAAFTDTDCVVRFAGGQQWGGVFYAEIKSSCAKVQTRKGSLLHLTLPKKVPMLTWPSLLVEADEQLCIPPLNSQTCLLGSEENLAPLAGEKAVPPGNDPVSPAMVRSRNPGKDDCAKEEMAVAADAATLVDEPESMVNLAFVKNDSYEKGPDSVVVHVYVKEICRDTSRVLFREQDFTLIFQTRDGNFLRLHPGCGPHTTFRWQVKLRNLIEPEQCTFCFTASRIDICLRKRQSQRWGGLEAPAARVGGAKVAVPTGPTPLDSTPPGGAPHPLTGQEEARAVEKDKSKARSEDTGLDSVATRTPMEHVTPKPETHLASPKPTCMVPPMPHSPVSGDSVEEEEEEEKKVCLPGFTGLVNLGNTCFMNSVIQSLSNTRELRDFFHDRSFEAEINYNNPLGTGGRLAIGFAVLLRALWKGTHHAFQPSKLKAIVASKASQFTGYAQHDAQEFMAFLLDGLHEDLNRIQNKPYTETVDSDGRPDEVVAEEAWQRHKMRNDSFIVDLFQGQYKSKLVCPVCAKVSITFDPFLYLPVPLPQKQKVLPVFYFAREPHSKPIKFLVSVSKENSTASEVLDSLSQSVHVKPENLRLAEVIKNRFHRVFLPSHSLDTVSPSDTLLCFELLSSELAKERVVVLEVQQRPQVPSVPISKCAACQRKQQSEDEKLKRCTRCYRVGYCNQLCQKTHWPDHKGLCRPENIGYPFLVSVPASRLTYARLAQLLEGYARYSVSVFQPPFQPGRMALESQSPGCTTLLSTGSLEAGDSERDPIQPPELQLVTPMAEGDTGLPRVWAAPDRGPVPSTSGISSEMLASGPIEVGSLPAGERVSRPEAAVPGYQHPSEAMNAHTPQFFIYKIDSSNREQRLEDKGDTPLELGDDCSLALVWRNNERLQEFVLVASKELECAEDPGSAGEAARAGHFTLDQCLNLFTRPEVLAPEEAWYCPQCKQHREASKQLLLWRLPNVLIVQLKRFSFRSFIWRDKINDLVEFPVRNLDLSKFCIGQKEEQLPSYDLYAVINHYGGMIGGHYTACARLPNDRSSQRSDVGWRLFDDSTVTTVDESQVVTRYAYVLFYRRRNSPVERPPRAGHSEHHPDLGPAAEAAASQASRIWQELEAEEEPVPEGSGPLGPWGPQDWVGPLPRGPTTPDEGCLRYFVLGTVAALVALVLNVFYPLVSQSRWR
The experiment can be described thus: USP19 fluorescence polarisation (FP) homogeneous assay with Ubiquitin-Lys-TAMRA substrate. Format: biochemical. The following applies: 2.5 nM USP19, 30 min pre-incubation, average of at least two duplicate experiments. In short, it runs like this: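 Full-length USP19 preincubated 30 min at RT with inhibitor (200 μM to 2 μM series, 8–18 points) before adding 500 nM Ubiquitin-Lys-TAMRA substrate.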
Background: In fluorescence polarisation assays a small probe gives low polarisation when free and higher when bound to something large.
As to `O=C(N1CC[C@@](O)(Cn2cnc(Cl)cc2=O)C2(CCCC2)C1)N1CCOC[C@H]1c1ccc(F)cc1` [Example 282, 6-Chloro-3-(((S)-7-((R)-3-(4-fluorophenyl)morpholine-4-carbonyl)-10-hydroxy-7-azaspiro[4.5]decan-10-yl)methyl)pyrimidin-4(3H)-one], the IC50 was below 500 nM. Consider `C[C@H](CC1CCCCC1)C(=O)N1CCC(O)(Cn2cc(S(C)(=N)=O)c(-c3ccccc3)cc2=O)C2(CCCC2)C1` (stereo partly drawn) [Example 74, 1-((7-((R)-3-Cyclohexyl-2-methylpropanoyl)-10-hydroxy-7-azaspiro[4.5]decan-10-yl)methyl)-5-(S-methylsulfonimidoyl)-4-phenylpyridin-2(1H)-one], for which the IC50 was below 500 nM. As for `O=C(N1CC[C@@](O)(Cn2cnc(N3CCC(F)(F)C3)cc2=O)C2(CCCC2)C1)N1CCNC[C@H]1c1ccccc1` [Example 359, 6-(3,3-Difluoro-pyrrolidin-1-yl)-3-(((S)-10-hydroxy-7-((R)-2-phenylpiperazine-1-carbonyl)-7-aza-spiro[4.5]decan-10-yl)methyl)pyrimidin-4(3H)-one], the IC50 was below 500 nM. `COc1cc(=O)n(C[C@]2(O)CCN(C(=O)N3CCNC[C@H]3c3ccccc3)CC23CCCC3)cn1` [Example 324, 3-(((S)-10-Hydroxy-7-((R)-2-phenylpiperazine-1-carbonyl)-7-azaspiro[4.5]decan-10-yl)methyl)-6-methoxypyrimidin-4(3H)-one]: the IC50 is below 500 nM. The result for `O=C(N1CC[C@@](O)(Cn2cnc(-c3ccccc3)cc2=O)C2(CCCC2)C1)N1CCNC[C@H]1c1cccc(F)c1F` [Example 367, 3-(((S)-7-((R)-2-(2,3-Difluoro-phenyl)piper-azine-1-carbonyl)-10-hydroxy-7-azaspiro[4.5]decan-10-yl)methyl)-6-phenylpyrimidin-4(3H)-one] reads below 500 nM. With `Cn1nccc1-c1cc(=O)n(C[C@]2(O)CCN(C(=O)N3CCOC[C@H]3c3ccccc3)CC23CCCC3)cn1` [Example 224, 3-(((S)-10-Hydroxy-7-((R)-3-phenylmorpholine-4-carbonyl)-7-azaspiro[4.5]decan-10-yl)methyl)-6-(1-methyl-1H-pyrazol-5-yl)pyrimidin-4(3H)-one] the figure was below 500 nM; with `C[C@H](CC1CCCCC1)C(=O)N1CCC(O)(Cn2cnc3c(F)cccc3c2=O)C2(CCCC2)C1` (stereo partly drawn) [Example 131, 3-((7-((R)-3-Cyclohexyl-2-methylpropanoyl)-10-hydroxy-7-azaspiro[4.5]decan-10-yl)methyl)-8-fluoroquinazolin-4(3H)-one], 500 to 5000 nM. The result for `CC(=O)N1CCN(C(=O)N2CC[C@@](O)(Cn3cnc(-c4ccccc4)cc3=O)C3(CCCC3)C2)[C@H](c2ccccc2)C1` [Example 279, 3-(((S)-7-((R)-4-Acetyl-2-phenylpiperazine-1-carbonyl)-10-hydroxy-7-azaspiro[4.5]decan-10-yl)methyl)-6-phenylpyrimidin-4(3H)-one] reads 500 to 5000 nM. In the case of `C[C@H](CC(F)(F)F)C(=O)N1CCC(O)(Cn2ccc3ncncc3c2=O)C2(CCCC2)C1` (stereo partly drawn) [Example 159, 6-((10-Hydroxy-7-((R)-4,4,4-trifluoro-2-methylbutanoyl)-7-azaspiro[4.5]decan-10-yl)methyl)pyrido[4,3-d]pyrimidin-5(6H)-one], the concentration for half-maximal inhibition (IC50) was 5000 to 50000 nM. With `O=C(N1CCC(O)(Cn2cnc(-c3ccccc3)cc2=O)C2(CCCC2)C1)N1CCOCC1C1CC1` (stereo not shown) [Example 248, 3-((7-(3-Cyclopropylmorpholine-4-carbonyl)-10-hydroxy-7-azaspiro[4.5]decan-10-yl)methyl)-6-phenylpyrimidin-4(3H)-one], the IC50 was 5000 to 50000 nM. Regarding `C[C@H](CC1CCCCC1)C(=O)N1CCC(O)(CN2CCN(C)CC2=O)C2(CCCC2)C1` (stereo partly drawn) [Example 114, 1-((7-((R)-3-Cyclohexyl-2-methylpropanoyl)-10-hydroxy-7-azaspiro[4.5]decan-10-yl)methyl)-4-methylpiperazin-2-one], the IC50 was 500 to 5000 nM. For the molecule `C[C@H](CC1CCCCC1)C(=O)N1CCC(O)(Cn2cnc3c(cnn3-c3ccccc3)c2=O)C2(CCCC2)C1` (stereo partly drawn) [Example 176, 5-((7-((R)-3-Cyclohexyl-2-methylpropanoyl)-10-hydroxy-7-azaspiro[4.5]decan-10-yl)methyl)-1-phenyl-1,5-dihydro-4H-pyrazolo[3,4-d]pyrimidin-4-one], the IC50 was below 500 nM. Take `O=C(N1CCC(O)(Cn2cnc3c(cnn3Cc3ccccc3)c2=O)C2(CCCC2)C1)N1CCNC[C@H]1c1ccccc1` (stereo partly drawn) [Example 172, 1-Benzyl-5-((10-hydroxy-7-((R)-2-phenylpiperazine-1-carbonyl)-7-azaspiro[4.5]decan-10-yl)methyl)-1,5-dihydro-4H-pyrazolo[3,4-d]pyrimidin-4-one]: the IC50 is below 500 nM. With `O=C(N1CCC(O)(Cn2cnc(-c3ccccc3)cc2=O)C2(CCC2)C1)N1CCOC[C@H]1c1ccccc1` (stereo partly drawn) [Example 305, 3-((9-Hydroxy-6-((R)-3-phenylmorpholine-4-carbonyl)-6-azaspiro[3.5]nonan-9-yl)methyl)-6-phenylpyrimidin-4(3H)-one] the figure was below 500 nM. For the molecule `CN(C)C(=O)C1CN(C[C@@]2(O)CCN(C(=O)[C@H](CO)CC3CCCCC3)CC2(C)C)C(=O)CC1c1ccccc1` (stereo partly drawn) [Example 25, 1-(((R)-1-((S)-3-Cyclohexyl-2-(hydroxymethyl)propanoyl)-4-hydroxy-3,3-dimethylpiperidin-4-yl)methyl)-N,N-dimethyl-6-oxo-4-phenylpiperidine-3-carboxamide], the IC50 lay within 5000 to 50000 nM. Turning to `O=C(N1CC[C@@](O)(Cn2cnc(-c3ccccc3)cc2=O)C2(CCCC2)C1)N1CCS(=O)(=O)CC1c1ccccc1` (stereo partly drawn) [Example 335, (S)-3-((7-(1,1-Dioxido-3-phenylthiomorpholine-4-carbonyl)-10-hydroxy-7-azaspiro[4.5]decan-10-yl)methyl)-6-phenylpyrimidin-4(3H)-one], the IC50 is below 500 nM. Turning to `O=C(N1CC[C@@](O)(Cn2cnc(-c3cccc(F)c3)cc2=O)C2(CCCC2)C1)N1CCNC[C@H]1c1cc(F)ccc1F` [Example 376, 3-(((S)-7-((R)-2-(2,5-Difluorophenyl)piper-azine-1-carbonyl)-10-hydroxy-7-azaspiro[4.5]decan-10-yl)methyl)-6-(3-fluorophenyl)pyrimi-din-4(3H)-one], the IC50 is below 500 nM.

For the molecule `O=C(N1CC[C@@](O)(Cn2cnc(-c3ccc4c(c3)CCO4)cc2=O)C2(CCCC2)C1)N1CCNC[C@H]1c1ccccc1` [Example 346, 6-(2,3-Dihydrobenzofuran-5-yl)-3-(((S)-10-hydroxy-7-((R)-2-phenylpiperazine-1-carbonyl)-7-aza-spiro[4.5]decan-10-yl)methyl)pyrimidin-4(3H)-one], the IC50 was below 500 nM.

For `C[C@H](CC1CCCCC1)C(=O)N1CCC(O)(CN2C(=O)COc3c(N)cccc32)C2(CCCC2)C1` (stereo partly drawn) [Example 37, 8-Amino-4-((7-((R)-3-cyclohexyl-2-methylpropanoyl)-10-hydroxy-7-azaspiro[4.5]decan-10-yl)methyl)-2H-benzo[b][1,4]oxazin-3(4H)-one], the IC50 was 500 to 5000 nM. As for `O=C(N1CC[C@@](O)(Cn2cnc(-c3ccc(Cl)cc3)cc2=O)C2(CCCC2)C1)N1CCNC[C@H]1c1ccccc1` [Example 349, 6-(4-Chlorophenyl)-3-(((S)-10-hydroxy-7-((R)-2-phenylpiperazine-1-carbonyl)-7-aza-spiro[4.5]decan-10-yl)methyl)pyrimidin-4(3H)-one], the IC50 is below 500 nM. With `O=C(N1CC[C@@](O)(Cn2cnc(-c3ccccc3)cc2=O)C2(CCCC2)C1)N1CCNC[C@H]1c1cc(F)ccc1F` [Example 373, 3-(((S)-7-((R)-2-(2,5-Difluorophenyl)piper-azine-1-carbonyl)-10-hydroxy-7-azaspiro[4.5]decan-10-yl)methyl)-6-phenylpyrimidin-4(3H)-one] the figure was below 500 nM; with `CC(C)c1coc([C@@H]2CCCN2C(=O)N2CCC(O)(Cn3cnc(-c4ccccc4)cc3=O)C3(CCCC3)C2)n1` (stereo partly drawn) [Example 270, 3-((10-Hydroxy-7-((S)-2-(4-isopropyloxazol-2-yl)pyrrolidine-1-carbonyl)-7-azaspiro[4.5]decan-10-yl)methyl)-6-phenylpyrimidin-4(3H)-one], 50000 to 250000 nM.

These data come from patent US20220033397A1, “PHARMACEUTICAL COMPOUNDS AND THEIR USE AS INHIBITORS OF UBIQUITIN SPECIFIC PROTEASE 19 (USP19)” (ALMAC DISCOVERY LIMITED, priority 2018, published 2022).
